{
  "source": "ChEMBL document CHEMBL6182945",
  "about": "“MMAE-Based Peptide-Drug Conjugates Targeting GPC3 for Precision Chemoradiotherapy in Hepatocellular Carcinoma” (J Med Chem, 2025)",
  "key": {"Hep 3B2 [1]": {"tested_on": "Hep 3B2", "assay": "Cell cycle arrest in human Hep3B cells assessed as accumulation of cells at G2/M phase at 30 nM measured after 24 hrs incubation by PI staining based flow cytometry (reference value: 23%)", "assay_type": "functional"}, "Hep 3B2 [2]": {"tested_on": "Hep 3B2", "assay": "Cell cycle arrest in human Hep3B cells assessed as accumulation of cells at S phase at 30 nM measured after 24 hrs incubation by PI staining based flow cytometry (reference value: 28.91%)", "assay_type": "functional"}, "Huh-7 [3]": {"tested_on": "Huh-7", "assay": "Cell cycle arrest in human Huh-7 cells assessed as accumulation of cells at G2/M phase at 100 nM measured after 24 hrs incubation by PI staining based flow cytometry (reference value: 18.88%)", "assay_type": "functional"}, "Huh-7 [4]": {"tested_on": "Huh-7", "assay": "Cell cycle arrest in human Huh-7 cells assessed as accumulation of cells at S phase at 100 nM measured after 24 hrs incubation by PI staining based flow cytometry (reference value: 33.15%)", "assay_type": "functional"}, "LX-2 [5]": {"tested_on": "LX-2", "assay": "Cell cycle arrest in human LX-2 cells assessed as accumulation of cells at G0/G1 phase at 10 nM measured after 24 hrs incubation by PI staining based flow cytometry (reference value: 48.42%)", "assay_type": "functional"}, "LX-2 [6]": {"tested_on": "LX-2", "assay": "Cell cycle arrest in human LX-2 cells assessed as accumulation of cells at G2/M phase at 10 nM measured after 24 hrs incubation by PI staining based flow cytometry (reference value: 14.65%)", "assay_type": "functional"}, "LX-2 [7]": {"tested_on": "LX-2", "assay": "Cell cycle arrest in human LX-2 cells assessed as accumulation of cells at S phase at 10 nM measured after 24 hrs incubation by PI staining based flow cytometry (reference value: 36.93%)", "assay_type": "functional"}, "LX-2 [8]": {"tested_on": "LX-2", "assay": "Cell cycle arrest in human LX-2 cells assessed as accumulation of cells at G0/G1 phase at 30 nM measured after 24 hrs incubation by PI staining based flow cytometry (reference value: 48.42%)", "assay_type": "functional"}, "Huh-7 [9]": {"tested_on": "Huh-7", "assay": "Cell cycle arrest in human Huh-7 cells assessed as accumulation of cells at S phase at 50 nM measured after 18 hrs incubation by PI staining based flow cytometry (reference value: 37.30%)", "assay_type": "functional"}, "Huh-7 [10]": {"tested_on": "Huh-7", "assay": "Cell cycle arrest in human Huh-7 cells assessed as accumulation of cells at phase G2/M at 50 nM measured after 24 hrs incubation by PI staining based flow cytometry (reference value: 18.42%)", "assay_type": "functional"}, "Huh-7 [11]": {"tested_on": "Huh-7", "assay": "Cell cycle arrest in human Huh-7 cells assessed as accumulation of cells at S phase at 50 nM measured after 24 hrs incubation by PI staining based flow cytometry (reference value: 37.30%)", "assay_type": "functional"}, "Huh-7 [12]": {"tested_on": "Huh-7", "assay": "Cell cycle arrest in human Huh-7 cells assessed as accumulation of cells at G0/G1 phase at 50 nM measured after 30 hrs incubation by PI staining based flow cytometry (reference value: 44.20%)", "assay_type": "functional"}, "Huh-7 [13]": {"tested_on": "Huh-7", "assay": "Radiosensitivity in human Huh-7 cells assessed as […] pre-treated overnight at 10 nM followed by irradiated with 2 Gy and measured after 14 days post treatment by crystal staining based clonogenic assay relative to compound alone/irradiation alone", "assay_type": "functional", "details": "time 14.0 day"}, "Huh-7 [14]": {"tested_on": "Huh-7", "assay": "Induction of DNA damage in human irradiated Huh-7 cells assessed as increase in DNA double break by measuring gamma-H2AX foci formation at 100 nM measured after 24 hrs by immunostaining assay relative to compound alone/irradiation alone", "assay_type": "functional, cell-based"}, "Huh-7 [15]": {"tested_on": "Huh-7", "assay": "Induction of radiation induced gamma-H2AX phosphorylation in human irradiated Huh-7 cells at 100 nM measured after 24 hrs by Western blot analysis", "assay_type": "functional, cell-based"}, "[16]": {"target": "Serine/threonine-protein kinase Chk2 (Homo sapiens) (UniProt O96017)", "sequence (O96017 whole entry)": "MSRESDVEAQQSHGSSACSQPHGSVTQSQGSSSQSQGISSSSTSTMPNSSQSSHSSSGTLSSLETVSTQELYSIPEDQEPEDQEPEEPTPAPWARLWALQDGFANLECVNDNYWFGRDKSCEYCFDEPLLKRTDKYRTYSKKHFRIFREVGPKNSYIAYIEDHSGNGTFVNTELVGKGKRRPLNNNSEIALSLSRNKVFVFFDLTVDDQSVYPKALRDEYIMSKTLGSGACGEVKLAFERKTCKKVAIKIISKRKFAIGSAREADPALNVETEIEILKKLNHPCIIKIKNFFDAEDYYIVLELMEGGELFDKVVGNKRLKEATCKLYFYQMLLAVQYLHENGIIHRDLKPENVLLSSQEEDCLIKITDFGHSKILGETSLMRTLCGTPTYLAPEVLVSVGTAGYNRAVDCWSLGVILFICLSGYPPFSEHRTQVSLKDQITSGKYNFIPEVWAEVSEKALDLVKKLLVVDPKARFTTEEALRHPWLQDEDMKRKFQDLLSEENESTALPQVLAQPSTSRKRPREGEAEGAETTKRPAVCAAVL", "assay": "Induction of CHK2 phosphorylation in human irradiated Huh-7 cells at 100 nM measured after 24 hrs by Western blot analysis", "assay_type": "cell-based"}, "Huh-7 [17]": {"tested_on": "Huh-7", "assay": "Decrease in CDK1 expression in human irradiated Huh-7 cells at 100 nM measured after 24 hrs by Western blot analysis relative to irradiation alone", "assay_type": "functional, cell-based"}, "Huh-7 [18]": {"tested_on": "Huh-7", "assay": "In vivo antitumor activity against human Huh-7 cells xenografted in female BALB/c mouse assessed as reduction in tumor volume at 0.5 mg/kg, iv total 4 doses measured on day 17 relative to control", "assay_type": "functional", "set-up": "scale not given: the % may be the effect or the level left", "details": "time 17 day"}},
  "note": "Calls of active or inactive are those of the source. No cut-off for these calls is given here.",
  "data": [
    {"smiles": "CC[C@H](C)[C@@H]([C@@H](CC(=O)N1CCC[C@H]1[C@H](OC)[C@@H](C)C(=O)N[C@H](C)[C@@H](O)c1ccccc1)OC)N(C)C(=O)[C@@H](NC(=O)[C@H](C(C)C)N(C)C(=O)OCc1ccc(NC(=O)[C@H](CCCNC(N)=O)NC(=O)[C@@H](NC(=O)CCCCCN2C(=O)CC(SC[C@H](N)C(=O)N[C@@H](CO)C(=O)N[C@@H](CC(N)=O)C(=O)N[C@@H](CC(=O)O)C(=O)N[C@@H](CCCNC(=N)N)C(=O)N3CCC[C@@H]3C(=O)N3CCC[C@@H]3C(=O)N[C@@H](CC(N)=O)C(=O)N[C@H](C(=O)N[C@@H](CC(C)C)C(=O)N[C@@H](CCC(N)=O)C(=O)N[C@@H](CCCCN)C(=O)N[C@@H](CCCNC(=N)N)C(N)=O)[C@@H](C)CC)C2=O)C(C)C)cc1)C(C)C", "note": "(stereo partly drawn)", "values": [
      {"measurement": "Activity", "setting": "Hep 3B2 [1]", "result": 45.12, "unit": "%"},
      {"measurement": "Activity", "setting": "Hep 3B2 [2]", "result": 26.35, "unit": "%"},
      {"measurement": "Activity", "setting": "Huh-7 [3]", "result": 76.34, "unit": "%"},
      {"measurement": "Activity", "setting": "Huh-7 [4]", "result": 11.54, "unit": "%"},
      {"measurement": "Activity", "setting": "LX-2 [5]", "result": 48.82, "unit": "%"},
      {"measurement": "Activity", "setting": "LX-2 [6]", "result": 13.04, "unit": "%"},
      {"measurement": "Activity", "setting": "LX-2 [7]", "result": 38.15, "unit": "%"},
      {"measurement": "Activity", "setting": "LX-2 [8]", "result": 46.22, "unit": "%"},
      {"measurement": "Activity", "setting": "Huh-7 [9]", "result": 24.32, "unit": "%"},
      {"measurement": "Activity", "setting": "Huh-7 [10]", "result": 56.79, "unit": "%"},
      {"measurement": "Activity", "setting": "Huh-7 [11]", "result": 14.94, "unit": "%"},
      {"measurement": "Activity", "setting": "Huh-7 [12]", "result": 31.74, "unit": "%"},
      {"measurement": "Activity", "setting": "Huh-7 [13]", "result": "Active"},
      {"measurement": "Activity", "setting": "Huh-7 [14]", "result": "Active"},
      {"measurement": "Activity", "setting": "Huh-7 [15]", "result": "Active"},
      {"measurement": "Activity", "setting": "[16]", "result": "Active"},
      {"measurement": "Activity", "setting": "Huh-7 [17]", "result": "Active"},
      {"measurement": "Activity", "setting": "Huh-7 [18]", "result": 15, "unit": "%"}
    ]}
  ]
}
